The record followed here is US9394544B2, “Ameliorating oxidative stress in neurodegenerative disease via Nox1 targeting” (University of Central Florida Research Foundation, Inc., priority 2013, dated 2016).

SMILES strings stand for the structures.

This data set relates to DA neurons in the rat SN. As to the kind of experiment: 8-oxo-dG immunostaining in the SN of 6-OHDA-treated rats. Type of data set: in vivo. To be noted: striatal injection. The protocol:
The experiments were carried out on rats, in accordance with the NIH Guide for the Care and Use of Laboratory Animals. All procedures were approved by the local Animal Care and Use Committee. Female Sprague Dawley (SD) rats (Charles River; 8-weeks-old at the time of the beginning of AAV expression or 6-OHDA treatment, 2 or 3 per cage) were maintained in a temperature/humidity-controlled environment under a 12 h light/dark cycle with free access to food and water. All rats were respectively allocated into […], Nox1 shRNA/AAV, T17N Rac1/AAV, and scramble (scb) shRNA/AAV or empty vector/AAV as control groups. Rats were deeply anesthetized (ketamine and xylazine mixture 30 mg/kg, i.p.) and placed in a rat stereotaxic apparatus, a site in the right substantia nigra (SN) [coordinate: anteroposterior (AP), −5.3 mm; mediolateral (ML), +2.0 mm; dorsoventral (DV), −5.8 mm] was selected to inject scb shRNA/AAV (n=8), Nox1 shRNA/AAV (n=16), T17N Rac1/AAV (n=16), and empty vector/AAV (n=28), respectively, according to the grouping. […]
Rats were deeply anesthetized with sodium pentobarbital (120 mg/kg) and transcardially perfused with saline containing 0.5% sodium nitrite and 10 U/ml heparin sulfate, followed by 4% cold formaldehyde generated from paraformaldehyde in 0.1 M PBS (pH 7.2). […] Mounted slices were evaluated on light microscope.

For the compound `NCCc1cc(O)c(O)cc1O` [6-OHDA, 6-hydroxydopamine], the “DNA oxidative damage (8-oxo-dG immunoreactivity in the nucleus) caused by toxin” value was “increased DNA oxidative damage”.
